# Paper PMC11277489, “Novel Piperazine Derivatives of Vindoline as Anticancer Agents” (International Journal of Molecular Sciences, 2024)
# Where two headings read alike, the source gives them in different places.
# Columns and labels:
# [1] = test system: A549/ATCC; assay: NCI60 one-dose screen (10 μM), Non-small Cell Lung Cancer; type: cell-based; conditions: Homo sapiens
# [2] = test system: NCI-H522; assay: as above; type: cell-based; conditions: Homo sapiens
# [3] = test system: SNB-19; assay: NCI60 one-dose screen (10 μM), CNS Cancer; type: cell-based; conditions: Homo sapiens
# [4] = test system: SNB-75; assay: NCI60 one-dose screen (10 μM), CNS Cancer; type: cell-based, human; conditions: Homo sapiens
# [5] = test system: SN12C; assay: NCI60 one-dose screen (10 μM), Renal Cancer; type: cell-based; conditions: Homo sapiens, read-out: Growth percent rate
# [6] = test system: KM12; assay: NCI60 one-dose screen (10 μM), Colon Cancer; type: cell-based, human; conditions: Homo sapiens
# [7] = test system: HCT-116; assay: NCI60 one-dose screen (10 μM), Colon Cancer; type: cell-based; conditions: Homo sapiens
# [8] = test system: OVCAR-3; assay: NCI60 one-dose screen (10 μM), Ovarian Cancer; type: cell-based; conditions: Homo sapiens
# [9] = test system: HL-60(TB); assay: NCI60 one-dose screen (10 μM), Leukemia; type: cell-based; conditions: Homo sapiens
# [10] = test system: MALME-3M; assay: NCI60 one-dose screen (10 μM), Melanoma; type: cell-based; conditions: Homo sapiens, read-out: Growth percent rate
# [11] = test system: CCRF-CEM; assay: NCI60 one-dose screen (10 μM), Leukemia; type: cell-based; conditions: Homo sapiens, read-out: Growth percent rate
# [12] = test system: SK-MEL-28; assay: NCI60 one-dose screen (10 μM), Melanoma; type: cell-based; conditions: Homo sapiens
# [13] = test system: 786–0; assay: NCI60 one-dose screen (10 μM), Renal Cancer; type: cell-based; conditions: Homo sapiens
# [14] = test system: DU-145; assay: NCI60 one-dose screen (10 μM), Prostate Cancer; type: cell-based; conditions: Homo sapiens
# [15] = test system: RXF 393; assay: NCI60 one-dose screen (10 μM), Renal Cancer; type: cell-based, human; conditions: Homo sapiens
# [16] = test system: K-562; assay: NCI60 one-dose screen (10 μM), Leukemia; type: cell-based; conditions: Homo sapiens
# [17] = test system: HS 578T; assay: NCI60 one-dose screen (10 μM), Breast Cancer; type: cell-based; conditions: Homo sapiens, read-out: Growth percent rate
# [18] = test system: COLO 205; assay: NCI60 one-dose screen (10 μM), Colon Cancer; type: cell-based, human; conditions: Homo sapiens
# [19] = test system: RPMI-8226; assay: NCI60 one-dose screen (10 μM), Leukemia; type: cell-based; conditions: Homo sapiens
# [20] = test system: ACHN; assay: NCI60 one-dose screen (10 μM), Renal Cancer; type: cell-based; conditions: Homo sapiens, read-out: Growth percent rate
# [21] = test system: SK-MEL-5; assay: NCI60 one-dose screen (10 μM), Melanoma; type: cell-based, human; conditions: Homo sapiens
# [22] = test system: SF-268; assay: NCI60 one-dose screen (10 μM), CNS Cancer; type: cell-based; conditions: Homo sapiens
# [23] = test system: MOLT-4; assay: NCI60 one-dose screen (10 μM), Leukemia; type: cell-based, human; conditions: Homo sapiens
# [24] = test system: M14; assay: NCI60 one-dose screen (10 μM), Melanoma; type: cell-based; conditions: Homo sapiens
# [25] = test system: A498; assay: NCI60 one-dose screen (10 μM), Renal Cancer; type: cell-based; conditions: Homo sapiens
# [26] = test system: HOP-62; assay: NCI60 one-dose screen (10 μM), Non-small Cell Lung Cancer; type: cell-based; conditions: Homo sapiens
# [27] = test system: NCI-H322M; assay: as above; type: cell-based; conditions: Homo sapiens, read-out: Growth percent rate
# [28] = test system: HT29; assay: NCI60 one-dose screen (10 μM), Colon Cancer; type: cell-based; conditions: Homo sapiens
# [29] = test system: HCT-15; assay: NCI60 one-dose screen (10 μM), Colon Cancer; type: cell-based; conditions: Homo sapiens
# [30] = test system: OVCAR-8; assay: NCI60 one-dose screen (10 μM), Ovarian Cancer; type: cell-based; conditions: Homo sapiens
# [31] = test system: SW-620; assay: NCI60 one-dose screen (10 μM), Colon Cancer; type: cell-based; conditions: Homo sapiens
# [32] = test system: 60 human tumor cell lines (NCI60); assay: NCI60 one-dose screen (10 μM), whole panel; type: cell-based; conditions: read-out: Growth percent rate, Mean
# [33] = test system: U251; assay: NCI60 one-dose screen (10 μM), CNS Cancer; type: cell-based; conditions: Homo sapiens
# [34] = test system: LOX IMVI; assay: NCI60 one-dose screen (10 μM), Melanoma; type: cell-based, human; conditions: Homo sapiens, LOX IMVI, read-out: Growth percent rate
# [35] = test system: SK-MEL-2; assay: NCI60 one-dose screen (10 μM), Melanoma; type: cell-based; conditions: Homo sapiens
# [36] = test system: IGROV1; assay: NCI60 one-dose screen (10 μM), Ovarian Cancer; type: cell-based; conditions: Homo sapiens
# [37] = test system: UACC-257; assay: NCI60 one-dose screen (10 μM), Melanoma; type: cell-based; conditions: Homo sapiens
# [38] = test system: SF-539; assay: NCI60 one-dose screen (10 μM), CNS Cancer; type: cell-based, human; conditions: Homo sapiens
# [39] = test system: MCF7; assay: NCI60 one-dose screen (10 μM), Breast Cancer; type: cell-based; conditions: Homo sapiens
# [40] = test system: SF-295; assay: NCI60 one-dose screen (10 μM), CNS Cancer; type: cell-based; conditions: Homo sapiens
# [41] = test system: NCI-H460; assay: NCI60 one-dose screen (10 μM), Non-small Cell Lung Cancer; type: cell-based; conditions: Homo sapiens
# [42] = test system: TK-10; assay: NCI60 one-dose screen (10 μM), Renal Cancer; type: cell-based; conditions: Homo sapiens
smiles,measurement,setting,value
CCC12C=CCN3CCC4(c5cc(NC(=O)CN6CCN(Cc7ccc(F)cc7)CC6)c(OC)cc5N(C)C4C(O)(C(=O)OC)C1OC(C)=O)C32 (stereo not drawn) [Compound 19],activity at 10 µM,"[1]; A549, read-out: Growth percent rate",89%
same,activity at 10 µM,"[2]; NCI-H522, read-out: Growth percent rate",93.5%
same,activity at 10 µM,"[3]; SNB-19, read-out: Growth percent rate",97.2%
same,activity at 10 µM,"[4]; SNB-75, read-out: Growth percent rate",87.3%
same,activity at 10 µM,[5],103%
same,activity at 10 µM,"[6]; KM12, read-out: Growth percent rate",115%
same,activity at 10 µM,"[7]; HCT-116, read-out: Growth percent rate",101%
same,activity at 10 µM,"[8]; OVCAR-3, read-out: Growth percent rate",119%
same,activity at 10 µM,"[9]; HL-60, read-out: Growth percent rate",101%
same,activity at 10 µM,[10]; Malme-3M,102%
same,activity at 10 µM,[11],105%
same,activity at 10 µM,"[12]; SK-MEL-28, read-out: Growth percent rate",109%
same,activity at 10 µM,"[13]; 786-0, read-out: Growth percent rate",92.8%
same,activity at 10 µM,"[14]; DU-145, read-out: Growth percent rate",111%
same,activity at 10 µM,"[15]; RXF 393, read-out: Growth percent rate",90.4%
same,activity at 10 µM,"[16]; K562, read-out: Growth percent rate",74%
same,activity at 10 µM,[17]; Hs-578T,110%
same,activity at 10 µM,"[18]; COLO 205, read-out: Growth percent rate",101%
same,activity at 10 µM,"[19]; RPMI-8226, read-out: Growth percent rate",94.1%
same,activity at 10 µM,[20],102%
same,activity at 10 µM,"[21]; SK-MEL-5, read-out: Growth percent rate",92.8%
same,activity at 10 µM,"[22]; SF-268, read-out: Growth percent rate",102%
same,activity at 10 µM,"[23]; MOLT-4, read-out: Growth percent rate",78%
same,activity at 10 µM,"[24]; M14, read-out: Growth percent rate",102%
same,activity at 10 µM,"[25]; A498, read-out: Growth percent rate",132%
same,activity at 10 µM,"[26]; HOP-62, read-out: Growth percent rate",106%
same,activity at 10 µM,[27],98.5%
same,activity at 10 µM,"[28]; HT-29, read-out: Growth percent rate",108%
same,activity at 10 µM,"[29]; HCT-15, read-out: Growth percent rate",95%
same,activity at 10 µM,"[30]; OVCAR-8, read-out: Growth percent rate",100%
same,activity at 10 µM,"[31]; SW-620, read-out: Growth percent rate",118%
same,activity at 10 µM,[32]; Homo sapiens,99.6%
same,activity at 10 µM,"[33]; U-251, read-out: Growth percent rate",103%
same,activity at 10 µM,[34],99.1%
same,activity at 10 µM,"[35]; SK-MEL-2, read-out: Growth percent rate",103%
same,activity at 10 µM,"[36]; IGROV-1, read-out: Growth percent rate",113%
same,activity at 10 µM,"[37]; UACC-257, read-out: Growth percent rate",98.4%
same,activity at 10 µM,"[38]; SF-539, read-out: Growth percent rate",102%
same,activity at 10 µM,"[39]; MCF7, read-out: Growth percent rate",80%
same,activity at 10 µM,"[40]; SF-295, read-out: Growth percent rate",99.8%
same,activity at 10 µM,"[41]; NCI-H460, read-out: Growth percent rate",129%
same,activity at 10 µM,"[42]; TK-10, read-out: Growth percent rate",107%
CCC12C=CCN3CCC4(c5ccc(OC)cc5N(C)C4C(O)(C(=O)OC)C1OC(=O)CCCN1CCN(C)CC1)C32 (stereo not drawn) [Compound 3],activity at 10 µM,"[1]; 10 μM, A549/ATCC, Non-small Cell Lung Cancer, read-out: Growth percent rate",98.2%
same,activity at 10 µM,"[2]; 10 μM, NCI-H522, Non-small Cell Lung Cancer, read-out: Growth percent rate",45.9%
same,activity at 10 µM,"[3]; 10 μM, SNB-19, CNS Cancer, read-out: Growth percent rate",90.6%
same,activity at 10 µM,"[4]; 10 μM, SNB-75, CNS Cancer, read-out: Growth percent rate",85.3%
same,activity at 10 µM,"[5]; 10 μM, Renal Cancer",89.1%
same,activity at 10 µM,"[6]; 10 μM, KM12, Colon Cancer, read-out: Growth percent rate",85.3%
same,activity at 10 µM,"[7]; 10 μM, HCT-116, Colon Cancer, read-out: Growth percent rate",112%
same,activity at 10 µM,"[8]; 10 μM, OVCAR-3, Ovarian Cancer, read-out: Growth percent rate",78.1%
same,activity at 10 µM,"[9]; 10 μM, HL-60(TB), Leukemia, read-out: Growth percent rate",91%
same,activity at 10 µM,"[10]; 10 μM, MALME-3M, Melanoma",77.2%
same,activity at 10 µM,"[11]; 10 μM, Leukemia",108%
same,activity at 10 µM,"[12]; 10 μM, SK-MEL-28, Melanoma, read-out: Growth percent rate",85%
same,activity at 10 µM,"[13]; 10 μM, 786-0, Renal Cancer, read-out: Growth percent rate",106%
same,activity at 10 µM,"[14]; 10 μM, DU-145, Prostate Cancer, read-out: Growth percent rate",99.6%
same,activity at 10 µM,"[15]; 10 μM, RXF 393, Renal Cancer, read-out: Growth percent rate",73%
same,activity at 10 µM,"[16]; K562, 10 μM, K-562, Leukemia, read-out: Growth percent rate",66.9%
same,activity at 10 µM,"[17]; 10 μM, HS 578T, Breast Cancer",78.6%
same,activity at 10 µM,"[18]; 10 μM, COLO 205, Colon Cancer, read-out: Growth percent rate",90%
same,activity at 10 µM,"[19]; 10 μM, RPMI-8226, Leukemia, read-out: Growth percent rate",112%
same,activity at 10 µM,"[20]; 10 μM, Renal Cancer",103%
same,activity at 10 µM,"[21]; 10 μM, SK-MEL-5, Melanoma, read-out: Growth percent rate",74.5%
same,activity at 10 µM,"[22]; 10 μM, SF-268, CNS Cancer, read-out: Growth percent rate",90.8%
same,activity at 10 µM,"[23]; 10 μM, MOLT-4, Leukemia, read-out: Growth percent rate",102%
same,activity at 10 µM,"[24]; 10 μM, M14, Melanoma, read-out: Growth percent rate",103%
same,activity at 10 µM,"[25]; 10 μM, A498, Renal Cancer, read-out: Growth percent rate",83.2%
same,activity at 10 µM,"[26]; 10 μM, HOP-62, Non-small Cell Lung Cancer, read-out: Growth percent rate",79.9%
same,activity at 10 µM,"[27]; 10 μM, Non-small Cell Lung Cancer",96.9%
same,activity at 10 µM,"[28]; HT-29, 10 μM, HT29, Colon Cancer, read-out: Growth percent rate",98.8%
same,activity at 10 µM,"[29]; 10 μM, HCT-15, Colon Cancer, read-out: Growth percent rate",91.3%
same,activity at 10 µM,"[30]; 10 μM, OVCAR-8, Ovarian Cancer, read-out: Growth percent rate",92.9%
same,activity at 10 µM,"[31]; 10 μM, SW-620, Colon Cancer, read-out: Growth percent rate",87%
same,activity at 10 µM,"[32]; 10 μM, mean over 60 human cancer cell lines",87.8%
same,activity at 10 µM,"[33]; U-251, 10 μM, U251, CNS Cancer, read-out: Growth percent rate",89.9%
same,activity at 10 µM,"[34]; 10 μM, Melanoma",84%
same,activity at 10 µM,"[35]; 10 μM, SK-MEL-2, Melanoma, read-out: Growth percent rate",84.7%
same,activity at 10 µM,"[36]; IGROV-1, 10 μM, IGROV1, Ovarian Cancer, read-out: Growth percent rate",102%
same,activity at 10 µM,"[37]; 10 μM, UACC-257, Melanoma, read-out: Growth percent rate",90.1%
same,activity at 10 µM,"[38]; 10 μM, SF-539, CNS Cancer, read-out: Growth percent rate",88.1%
same,activity at 10 µM,"[39]; 10 μM, MCF7, Breast Cancer, read-out: Growth percent rate",78%
same,activity at 10 µM,"[40]; 10 μM, SF-295, CNS Cancer, read-out: Growth percent rate",96.2%
same,activity at 10 µM,"[41]; 10 μM, NCI-H460, Non-small Cell Lung Cancer, read-out: Growth percent rate",97.7%
same,activity at 10 µM,"[42]; 10 μM, TK-10, Renal Cancer, read-out: Growth percent rate",99%
